Source: patent publication US10653784B2, “Hydrophobic highly branched carbohydrate polymers” (Purdue Research Foundation, priority 2015, dated 2020)
Values after ≈ are worked out from the molar mass of the structure shown. Blank lines part the entries; values can stand above or below the molecule they belong to.

Assays:
[1] = Solubility of celecoxib in HBSS (centrifugation, HPLC of supernatant); type: physicochemical; settings: Hank's Balanced Salt Solution (HBSS), aqueous buffer, thermodynamic from solid, 37° C., 2 h mixing, API/excipient 1/5, total dispersed API 1,000 μg/mL, 16,000 g 10 min, read-out: water solubility of celecoxib (concentration in supernatant)
Protocol: FIG. 8 provides a graph showing the solubility of celecoxib when incorporated with OHPP, HPMCAS, and Soluplus, as compared with that of celecoxib alone. The ratios between celecoxib and each excipient was 1/5, with total dispersed API of 1,000 μg/mL in HBSS buffer (37° C.). The mixing time was 2 h before subjecting the dispersion to centrifugation to collect supernatant for celecoxib quantification. The weight ratio of celecoxib, OHPP, and HPMCAS was 1, 3, and 2 respectively for the Cel-OHPP-HPMCAS preparation.
Thereafter, the dispersions were centrifuged at 16,000 g for 10 min, and the supernatants were collected for celecoxib quantification using HPLC. The concentration of celecoxib in the supernatant was considered as its water solubility.

physchem = type: physicochemical
Protocol: (§1) FIG. 7 provides a graph showing the solubility of curcumin when incorporated with OHPP, HPMCAS, and Soluplus, as compared with that of curcumin alone. The ratio between curcumin and excipient was 1/9, with total dispersed curcumin of 1,000 μg/mL in HBSS buffer (37° C.). The mixing time was 2 h before subjecting the dispersion to centrifugation to collect supernatant for curcumin quantification.
Thereafter, the dispersions were centrifuged at 16,000 g for 10 min, and the supernatants were collected for curcumin quantification using HPLC. The concentration of curcumin in the supernatant was considered as its water solubility.

[2] = Solubility of paclitaxel in HBSS (centrifugation, HPLC of supernatant); type: physicochemical; settings: Hank's Balanced Salt Solution (HBSS), aqueous buffer, thermodynamic from solid, 37° C., 2 h mixing, API/excipient 1/3, total dispersed API 2,500 μg/mL, 16,000 g 10 min, read-out: water solubility of paclitaxel (concentration in supernatant)
Protocol: The mixing time was 2 h before subjecting the dispersion to centrifugation to collect supernatant for paclitaxel quantification.
Thereafter, the dispersions were centrifuged at 16,000 g for 10 min, and the supernatants were collected for paclitaxel quantification using HPLC. The concentration of paclitaxel in the supernatant was considered as its water solubility.

[3] = Solubility of itraconazole in HBSS (centrifugation, HPLC of supernatant); type: physicochemical; settings: Hank's Balanced Salt Solution (HBSS), aqueous buffer, thermodynamic from solid, 20° C., 10 min vortex, API/excipient 1/3, total dispersed API 2,500 μg/mL, 16,000 g 10 min, read-out: water solubility of itraconazole (concentration in supernatant)
Protocol: as §1, with “6” for “7”, “itraconazole” for “curcumin”, “1/3,” for “1/9,”, “2,500” for “1,000”, “(20°” for “(37°”, “10 min” for “2 h”
Thereafter, the dispersions were centrifuged at 16,000 g for 10 min, and the supernatants were collected for itraconazole quantification using HPLC. The concentration of itraconazole in the supernatant was considered as its water solubility.

[4] = Solubility of griseofulvin in HBSS (centrifugation, HPLC of supernatant); type: physicochemical; settings: Hank's Balanced Salt Solution (HBSS), aqueous buffer, thermodynamic from solid, 37° C., 2 h mixing, API/excipient 1/3, total dispersed API 2,500 μg/mL, 16,000 g 10 min, read-out: water solubility of griseofulvin (concentration in supernatant)
Protocol: The mixing time was 2 h before subjecting the dispersion to centrifugation to collect supernatant for griseofulvin quantification.
Thereafter, the dispersions were centrifuged at 16,000 g for 10 min, and the supernatants were collected for griseofulvin quantification using HPLC. The concentration of griseofulvin in the supernatant was considered as its water solubility.

[5] = Solubility of docetaxel in HBSS (centrifugation, HPLC of supernatant); type: physicochemical; settings: Hank's Balanced Salt Solution (HBSS), aqueous buffer, thermodynamic from solid, 20° C., 10 min vortex, API/excipient 1/3, total dispersed API 2,500 μg/mL, 16,000 g 10 min, read-out: water solubility of docetaxel (concentration in supernatant)
Protocol: as §1, with “5” for “7”, “docetaxel” for “curcumin”, “1/3,” for “1/9,”, “2,500” for “1,000”, “(20°” for “(37°”, “10 min” for “2 h”
Thereafter, the dispersions were centrifuged at 16,000 g for 10 min, and the supernatants were collected for docetaxel quantification using HPLC. The concentration of docetaxel in the supernatant was considered as its water solubility.

[6] = Solubility of niclosamide in HBSS (centrifugation, HPLC of supernatant); type: physicochemical; settings: Hank's Balanced Salt Solution (HBSS), aqueous buffer, thermodynamic from solid, 37° C., 2 h mixing, API/excipient 1/3, total dispersed API 2,500 μg/mL, 16,000 g 10 min, read-out: water solubility of niclosamide (concentration in supernatant)
Protocol: FIG. 2 provides a graph showing the solubility of niclosamide when incorporated with OHPP, HPMCAS, and Soluplus (Soluplus®, BASF), as compared with that of niclosamide alone. The ratio between niclosamide and excipient was 1/3, with total dispersed API of 2,500 μg/mL in HBSS buffer (37° C.). The mixing time was 2 h before subjecting the dispersion to centrifugation to collect supernatant for API quantification.
Thereafter, the dispersions were centrifuged at 16,000 g for 10 min, and the supernatants were collected for niclosamide quantification using HPLC. The concentration of niclosamide in the supernatant was considered as its water solubility.

Protocol for Caco-2 cell monolayer: Nic-1000 and Nic-100: supernatant from centrifuged dispersion of pure niclosamide in HBSS at dispersing dose of 1000 and 100 μg/mL, respectively. Cel-1000 and Cel-100: supernatant from centrifuged dispersion of pure celecoxib in HBSS at dispersing dose of 1000 and 100 μg/mL, respectively. Nic-OHPP-100: supernatant from centrifuged dispersion of Nic-OHPP in HBSS at dispersing dose of 100 μg/mL (for pure niclosamide). Cel-OHPP-HPMCAS-100: supernatant of Cel-OHPP-HPMCAS dispersed in HBSS buffer at 100 μg/mL.
Caco-2 cells were seeded in the inserts with tissue-culture-treated polyester membranes (Transwells, 0.4 μm pore size, Corning) at a density of 1×10^4 cells/well. After seeding, the medium was changed every other day until the day of the permeation test. All tests were performed on day 21 after seeding. For the test, the culture medium was removed and the cells were washed twice with PBS buffer. The cells were then equilibrated in HBSS for 15 min prior to each study, and then apical and basolateral solution were aspirated.
To measure the apical-to-basolateral permeation of API, 0.5 mL of each test solution was added to the apical compartment, and the basolateral compartment received 1.5 mL HBSS. As a control, reference cells were incubated with 0.5 mL blank HBSS on the apical side, while the basolateral side received 1.5 mL of HBSS. All cultures were incubated in an incubator (5% CO2, 37° C.) for 2 h. After the incubation, the apical and the basolateral solutions were collected respectively and their amounts of API were determined using HPLC.
The loaded dispersions were prepared in two steps: (1) dispersing API-excipient complex solid and API alone in HBSS at the doses of 1000 μg/mL or 100 μg/mL, and (2) subjecting each dispersion to centrifugation (16,000 g, 5 min) to collect supernatant. The supernatants were loaded in the apical compartments of inserts.

Molecule: Cc1ccc(-c2cc(C(F)(F)F)nn2-c2ccc(S(N)(=O)=O)cc2)cc1 [celecoxib]
- solubility at 2 h [1]: ~12.8 µg/mL
- permeation of API through Caco-2 monolayer, API alone (Caco-2 cell monolayer): not sufficient to provide an appreciable permeation

Molecule: octenylsuccinate hydroxypropyl phytoglycogen [OHPP]
- increase of the solubility of curcumin in aqueous solution by use of OHPP (physchem): at least 100 times
- permeation of API through Caco-2 monolayer when OHPP was used (Caco-2 cell monolayer): substantially increased

Molecule: COC1=CC(=O)C[C@@H](C)[C@]12Oc1c(Cl)c(OC)cc(OC)c1C2=O [griseofulvin]
- solubility at 2 h [4]: ~17.5 µg/mL

Molecule: COc1cc(/C=C/C(=O)CC(=O)/C=C/c2ccc(O)c(OC)c2)ccc1O [curcumin]
- solubility at 2 h (physchem; 37 °C, aqueous buffer, thermodynamic from solid): ~7.2 µg/mL (≈ 19.5 µM)

Molecule: CC(=O)O[C@@]12CO[C@@H]1C[C@H](O)[C@@]1(C)C(=O)[C@H](O)C3=C(C)[C@@H](OC(=O)[C@H](O)[C@@H](NC(=O)OC(C)(C)C)c4ccccc4)C[C@@](O)([C@@H](OC(=O)c4ccccc4)[C@H]21)C3(C)C [docetaxel]
- solubility at 10 min [5]: ~11.1 µg/mL

More lines, main results first:

- solubility at 2 h [2]: ~6.2 µg/mL
Molecule: CC(=O)O[C@H]1C(=O)[C@@]2(C)[C@H]([C@H](OC(=O)c3ccccc3)[C@]3(O)C[C@H](OC(=O)[C@H](O)[C@@H](NC(=O)c4ccccc4)c4ccccc4)C(C)=C1C3(C)C)[C@]1(OC(C)=O)CO[C@@H]1C[C@@H]2O [paclitaxel]

- solubility at 10 min [3]: ~0.96 µg/mL
Molecule: CCC(C)n1ncn(-c2ccc(N3CCN(c4ccc(OCC5COC(Cn6cncn6)(c6ccc(Cl)cc6Cl)O5)cc4)CC3)cc2)c1=O (centres unmarked) [itraconazole]

- solubility at 2 h [6]: ~13.2 µg/mL
Molecule: O=C(Nc1ccc([N+](=O)[O-])cc1Cl)c1cc(Cl)ccc1O [niclosamide]
- permeation of API through Caco-2 monolayer, API alone (Caco-2 cell monolayer): not sufficient to provide an appreciable permeation
